From article PMC3672506, “A useful EGFR-TK ligand for tumor diagnosis with SPECT: development of radioiodinated 6-(3-morpholinopropoxy)-7-ethoxy-4-(3′-iodophenoxy)quinazoline” (Annals of Nuclear Medicine, 2013)
Where two headings read alike, the source gives them in different places.

Columns and labels:
A431 tumor [1] = format: in vivo, balb/c nude mice; settings: for Blood radioactivity / Brain radioactivity / Heart radioactivity / Kidney radioactivity / Liver radioactivity / Lung radioactivity / Muscle radioactivity / Pancreas radioactivity / Spleen radioactivity / Stomach radioactivity / Tumor radioactivity: A-431 tumor-bearing mice, i.v.
Description: The animals were euthanized 1, 6, 12 or 24 h after injection of the radioligands (37 kBq, 74 TBq/mmol in 0.1 mL saline), and the distributions were studied as described above.
In particular, the radioactivity accumulated in the liver 24 h after injection was approximately 1/50 of the radioactivity 1 h after injection. Thus, tumor-to-organ ratios for [^125I]PYK 24 h after injection had desirable values (Fig. 3b: tumor to lung: 8.5, tumor to kidney: 4.3, tumor to liver: 3.0) for tumor diagnostic imaging.

NALM6 cell membranes = format: binding; settings: NALM6, negative-EGFR leukemia cell line
Description: (§1) Assays were carried out as described in the previous section. Crude P2 membrane fractions (A431or NALM6, 0.1 mg of protein, 10 μL) and [^125I]PYK (1–300 nM, 100 μL, 0.74 kBq) were used. […] Specific binding was defined as the difference between the total and non-specific binding. Scatchard plot analysis of the saturation binding data was used to determine the equilibrium dissociation constant (K d) and the maximal number of binding sites (B max).
(§2) The crude P2 membrane fraction from A431 or NAlM6 cells were used in further binding experiments for pharmacological characterization. […] While, in the NALM6 as a negative-EGFR leukemia cell line, [^125I]PYK binding to cell membranes was undetectable.

[2] = biological target: EGFR-TK in A431 cell membranes (Homo sapiens, UniProt P00533); format: binding
Sequence of EGFR-TK in A431 cell membranes (P00533 25-1210): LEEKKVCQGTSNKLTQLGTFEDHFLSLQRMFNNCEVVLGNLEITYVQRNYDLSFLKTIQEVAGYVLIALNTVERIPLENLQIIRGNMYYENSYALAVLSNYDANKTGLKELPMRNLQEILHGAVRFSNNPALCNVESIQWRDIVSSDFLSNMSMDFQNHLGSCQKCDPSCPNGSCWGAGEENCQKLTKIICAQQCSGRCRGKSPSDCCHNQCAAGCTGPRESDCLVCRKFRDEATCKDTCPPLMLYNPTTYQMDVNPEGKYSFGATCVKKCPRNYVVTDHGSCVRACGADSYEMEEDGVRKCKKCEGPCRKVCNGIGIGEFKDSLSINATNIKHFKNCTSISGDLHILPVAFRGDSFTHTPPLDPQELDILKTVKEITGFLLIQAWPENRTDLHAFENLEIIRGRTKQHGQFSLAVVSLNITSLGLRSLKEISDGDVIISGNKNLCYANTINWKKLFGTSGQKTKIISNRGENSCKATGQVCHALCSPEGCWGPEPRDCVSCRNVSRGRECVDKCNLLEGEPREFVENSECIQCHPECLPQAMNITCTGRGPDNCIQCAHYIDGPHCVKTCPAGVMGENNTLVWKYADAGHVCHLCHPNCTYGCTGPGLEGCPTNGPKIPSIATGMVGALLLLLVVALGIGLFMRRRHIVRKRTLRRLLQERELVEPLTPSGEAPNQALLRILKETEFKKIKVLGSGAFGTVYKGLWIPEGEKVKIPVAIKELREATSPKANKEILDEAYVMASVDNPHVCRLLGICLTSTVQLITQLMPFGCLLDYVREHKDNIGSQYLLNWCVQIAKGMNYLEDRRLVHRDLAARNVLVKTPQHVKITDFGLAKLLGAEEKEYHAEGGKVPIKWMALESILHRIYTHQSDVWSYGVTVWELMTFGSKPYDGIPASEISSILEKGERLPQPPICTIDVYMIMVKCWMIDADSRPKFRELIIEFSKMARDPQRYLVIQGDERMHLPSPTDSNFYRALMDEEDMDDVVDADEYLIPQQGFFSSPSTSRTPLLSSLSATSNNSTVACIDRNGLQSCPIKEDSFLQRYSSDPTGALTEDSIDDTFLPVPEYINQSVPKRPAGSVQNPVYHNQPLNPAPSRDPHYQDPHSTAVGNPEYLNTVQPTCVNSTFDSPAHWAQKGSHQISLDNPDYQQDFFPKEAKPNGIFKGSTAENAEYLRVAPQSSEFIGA
Description: as §1, §2

A431 tumor [3] = experiment: Tumor uptake of radioiodinated ligands in A431 tumor-bearing mice; format: in vivo, balb/c nude mice; settings: for accumulation in tumors: i.v.
Description: A suspension of 1 × 10^7 A431 cells in 0.1 mL of medium was inoculated subcutaneously in male balb/c nude mice (4 weeks old, 20–25 g, n = 3). After approximately 2 weeks, when the solid tumor had grown to optimal size, the mice were used for tumor uptake studies. [^125I]6a–d (37 kBq, 74 TBq/mmol) in 0.1 mL of saline was injected intravenously into tumor-bearing mice via the lateral tail vein. At 1 or 24 h after administration, the animals were sacrificed. Samples of tumor were excised and weighed. Radioactivity was measured using a well-type NaI(Tl) scintillation gamma counter. The results were expressed in terms of percentage of injected dose per gram of tumor.

A431 tumor [4] = experiment: SPECT/CT imaging of A431 tumor-bearing mice; format: in vivo; settings: 24 h after injection
Description: The mice underwent SPECT/CT studies when A431 tumors had grown to optimal size (approximately 2 weeks after inoculation). ^125I gamma camera imaging and image processing were performed using a small-animal imaging system with pinhole collimation (aperture diameter = 1 mm, focal length = 9 cm) and a 15- to 45 keV photo peak energy window (PET/SPECT/CT FX system, Gamma Medica Ideas). […] 24 h after injection, SPECT scans were performed at 64 projections over 360° (ROR = 4.5 cm, 60 s/projection). Reconstructed data from SPECT and CT were visualized and coregistered using AMIRA 3.1.
[^125I]PYK-SPECT images of tumors were very clear without interference from radioactivity in peripheral organs.

[5] = A431 tumor-bearing mice, 24 h after injection

CCOc1cc2ncnc(Oc3cccc([125I])c3)c2cc1OCCCN1CCOCC1 [[^125I]PYK]
liver radioactivity 24 h after injection relative to 1 h after injection (A431 tumor [1]; A431 tumor-bearing mice): approximately 1/50 | tumor to kidney ratio (A431 tumor [1]; [5]): 4.3 | tumor to liver ratio (A431 tumor [1]; [5]): 3.0 | tumor to lung ratio (A431 tumor [1]; [5]): 8.5 | tumor/blood ratio (A431 tumor [1]; [5]): 57.0 | tumor/muscle ratio (A431 tumor [1]; [5]): 45.5 | Blood radioactivity (A431 tumor [1]; 1 h after injection): 0.80 ± 0.14 % injected dose per gram | Brain radioactivity (A431 tumor [1]; 1 h after injection): 0.88 ± 0.07 % injected dose per gram | Heart radioactivity (A431 tumor [1]; 1 h after injection): 1.19 ± 0.17 % injected dose per gram | Kidney radioactivity (A431 tumor [1]; 1 h after injection): 7.40 ± 0.66 % injected dose per gram | Liver radioactivity (A431 tumor [1]; 1 h after injection): 27.0 ± 1.29 % injected dose per gram | Lung radioactivity (A431 tumor [1]; 1 h after injection): 4.14 ± 0.48 % injected dose per gram | Muscle radioactivity (A431 tumor [1]; 1 h after injection): 1.34 ± 0.21 % injected dose per gram | Pancreas radioactivity (A431 tumor [1]; 1 h after injection): 2.80 ± 0.19 % injected dose per gram | Spleen radioactivity (A431 tumor [1]; 1 h after injection): 2.14 ± 0.04 % injected dose per gram | Stomach radioactivity (A431 tumor [1]; 1 h after injection): 6.10 ± 2.08 % injected dose per gram | Tumor radioactivity (A431 tumor [1]; 1 h after injection): 4.37 ± 0.65 % injected dose per gram | Blood radioactivity (A431 tumor [1]; 6 h after injection): 0.20 ± 0.04 % injected dose per gram | Brain radioactivity (A431 tumor [1]; 6 h after injection): 0.17 ± 0.03 % injected dose per gram | Heart radioactivity (A431 tumor [1]; 6 h after injection): 0.50 ± 0.04 % injected dose per gram | Kidney radioactivity (A431 tumor [1]; 6 h after injection): 3.53 ± 0.72 % injected dose per gram | Liver radioactivity (A431 tumor [1]; 6 h after injection): 7.89 ± 1.45 % injected dose per gram | Lung radioactivity (A431 tumor [1]; 6 h after injection): 2.29 ± 0.69 % injected dose per gram | Muscle radioactivity (A431 tumor [1]; 6 h after injection): 0.39 ± 0.02 % injected dose per gram | Pancreas radioactivity (A431 tumor [1]; 6 h after injection): 1.59 ± 0.25 % injected dose per gram | Spleen radioactivity (A431 tumor [1]; 6 h after injection): 1.02 ± 0.18 % injected dose per gram | Stomach radioactivity (A431 tumor [1]; 6 h after injection): 1.23 ± 0.60 % injected dose per gram | Tumor radioactivity (A431 tumor [1]; 6 h after injection): 3.59 ± 0.73 % injected dose per gram | Blood radioactivity (A431 tumor [1]; 12 h after injection): 0.06 ± 0.01 % injected dose per gram | Brain radioactivity (A431 tumor [1]; 12 h after injection): 0.04 ± 0.01 % injected dose per gram | Heart radioactivity (A431 tumor [1]; 12 h after injection): 0.14 ± 0.02 % injected dose per gram | Kidney radioactivity (A431 tumor [1]; 12 h after injection): 1.06 ± 0.14 % injected dose per gram | Liver radioactivity (A431 tumor [1]; 12 h after injection): 1.55 ± 0.32 % injected dose per gram | Lung radioactivity (A431 tumor [1]; 12 h after injection): 0.61 ± 0.18 % injected dose per gram | Muscle radioactivity (A431 tumor [1]; 12 h after injection): 0.09 ± 0.02 % injected dose per gram | Pancreas radioactivity (A431 tumor [1]; 12 h after injection): 0.41 ± 0.06 % injected dose per gram | Spleen radioactivity (A431 tumor [1]; 12 h after injection): 0.21 ± 0.01 % injected dose per gram | Stomach radioactivity (A431 tumor [1]; 12 h after injection): 0.69 ± 0.51 % injected dose per gram | Tumor radioactivity (A431 tumor [1]; 12 h after injection): 1.72 ± 0.42 % injected dose per gram | Blood radioactivity (A431 tumor [1]; 24 h after injection): 0.03 ± 0.00 % injected dose per gram | Brain radioactivity (A431 tumor [1]; 24 h after injection): 0.02 ± 0.00 % injected dose per gram | Heart radioactivity (A431 tumor [1]; 24 h after injection): 0.05 ± 0.01 % injected dose per gram | Kidney radioactivity (A431 tumor [1]; 24 h after injection): 0.36 ± 0.04 % injected dose per gram | Liver radioactivity (A431 tumor [1]; 24 h after injection): 0.51 ± 0.35 % injected dose per gram | Lung radioactivity (A431 tumor [1]; 24 h after injection): 0.18 ± 0.07 % injected dose per gram | Muscle radioactivity (A431 tumor [1]; 24 h after injection): 0.03 ± 0.01 % injected dose per gram | Pancreas radioactivity (A431 tumor [1]; 24 h after injection): 0.14 ± 0.02 % injected dose per gram | Spleen radioactivity (A431 tumor [1]; 24 h after injection): 0.07 ± 0.03 % injected dose per gram | Stomach radioactivity (A431 tumor [1]; 24 h after injection): 0.38 ± 0.19 % injected dose per gram | Tumor radioactivity (A431 tumor [1]; 24 h after injection): 1.53 ± 0.15 % injected dose per gram | binding to cell membranes (NALM6 cell membranes): undetectable | Bmax ([2]; A431 P2 membranes, Scatchard analysis): 27.0 ± 3.43 pmol/mg protein | Hill's constant value ([2]; A431 membranes): 1.02 | tumor accumulation relative to [125I]PHY (A431 tumor [3]; 1 h post injection): approximately 8 folds | retention in tumors (in words) (A431 tumor [3]; [5]): good retention | accumulation in tumors (A431 tumor [3]; A431 tumor-bearing mice, 1 h post injection): 4.37 ± 0.65 % ID/g tissue | accumulation in tumors (A431 tumor [3]; [5]): 1.53 ± 0.15 % ID/g tissue | SPECT images of tumors (in words) (A431 tumor [4]): very clear
